Source: ChEMBL document CHEMBL5537113, “Discovery of 1,2-diaryl-3-oxopyrazolidin-4-carboxamides as a new class of MurA enzyme inhibitors and characterization of their antibacterial activity” (Eur J Med Chem, 2023)

What was measured:
[1] = biological target: T1, UDP-N-acetylglucosamine 1-carboxyvinyltransferase (Escherichia coli K-12, UniProt P0A749); experiment: Inhibition of Escherichia coli K12 His-tagged MurA expressed in Escherichia coli BL21 cells using UNAG as substrate pre incubated for 15 mins followed by substrate addition and measured after 15 mins by microplate reader analysis
T1 sequence (P0A749 whole entry): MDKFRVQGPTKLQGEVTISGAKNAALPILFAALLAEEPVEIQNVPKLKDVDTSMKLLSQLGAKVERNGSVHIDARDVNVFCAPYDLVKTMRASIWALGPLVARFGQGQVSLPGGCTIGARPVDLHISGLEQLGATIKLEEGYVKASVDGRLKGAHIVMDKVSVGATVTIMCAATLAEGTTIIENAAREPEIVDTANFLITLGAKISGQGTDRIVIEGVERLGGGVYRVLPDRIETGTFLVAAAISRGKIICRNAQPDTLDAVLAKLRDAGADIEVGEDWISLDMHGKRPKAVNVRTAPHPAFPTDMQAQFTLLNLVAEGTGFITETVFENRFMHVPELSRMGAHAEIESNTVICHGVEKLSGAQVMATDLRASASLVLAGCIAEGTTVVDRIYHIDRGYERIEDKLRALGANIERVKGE

[2] = tested on: Staphylococcus aureus; experiment: Antibacterial activity against Staphylococcus aureus Newman D2C NCTC 10833 assessed as reduction in microbial growth incubated for 16 hrs by serial dilution method; assay type: functional
[3] = tested on: UDP-N-acetylglucosamine 1-carboxyvinyltransferase (Escherichia coli K-12), P0A749 [C115D]; experiment: Inhibition of Escherichia coli MurA C115D mutant using UNAG as substrate pre incubated for 15 mins followed by substrate addition and measured after 15 mins by microplate reader analysis; settings: time 30.0 min
Sequence of UDP-N-acetylglucosamine 1-carboxyvinyltransferase (Escherichia coli K-12), P0A749 [C115D] (P0A749 whole entry C115D): as the sequence (P0A749 whole entry) above, with C115D counted along it

[4] = biological target: UDP-N-acetylglucosamine 1-carboxyvinyltransferase (Escherichia coli K-12, UniProt P0A749, C115D); experiment: Inhibition of Escherichia coli MurA C115D mutant at 50 uM using UNAG as substrate pre incubated for 15 mins followed by substrate addition and measured after 15 mins by microplate reader analysis relative to control
Sequence of UDP-N-acetylglucosamine 1-carboxyvinyltransferase (Escherichia coli K-12, UniProt P0A749, C115D) (P0A749 whole entry C115D): as the sequence (P0A749 whole entry) above, with C115D counted along it

[5] = biological target: UDP-N-acetylglucosamine 1-carboxyvinyltransferase (Escherichia coli K-12) (UniProt P0A749); experiment: Inhibition of Escherichia coli K12 His-tagged MurA expressed in Escherichia coli BL21 cells at 50 uM using UNAG as substrate pre incubated for 15 mins followed by substrate addition and measured after 15 mins by microplate reader analysis relative to control; settings: time 30.0 min
Sequence of UDP-N-acetylglucosamine 1-carboxyvinyltransferase (Escherichia coli K-12) (P0A749 whole entry): as the sequence (P0A749 whole entry) above

[6] = Drug uptake in Escherichia coli harboring tolC deletion mutant at 10 uM incubated for 30 mins by LC analysis; assay type: ADME; settings: 0.5 h
[7] = tested on: Escherichia coli; experiment: Antibacterial activity against Escherichia coli harboring tolC deletion mutant assessed as reduction in microbial growth incubated for 16 hrs by serial dilution method; assay type: functional
[8] = Drug uptake in Escherichia coli harboring tolC deletion mutant assessed per 1.6x10^9 cells at 10 uM incubated for 30 mins by LC analysis; assay type: ADME; settings: 0.5 h
[9] = tested on: Clostridioides difficile; experiment: Antibacterial activity against Clostridioides difficile ATCC BAA1870 assessed as reduction in microbial growth incubated for 48 hrs by broth microdilution method; assay type: functional
[10] = tested on: Streptococcus pneumoniae; experiment: Antibacterial activity against Streptococcus pneumoniae ATCC 700677 assessed as reduction in microbial growth by CLSI based broth microdilution method; assay type: functional
[11] = tested on: Enterococcus faecalis; experiment: Antibacterial activity against Enterococcus faecalis ATCC 51299 assessed as reduction in microbial growth by CLSI based broth microdilution method; assay type: functional
[12] = tested on: Staphylococcus aureus; experiment: Antibacterial activity against methicillin resistant Staphylococcus aureus USA300 assessed as reduction in microbial growth by CLSI based broth microdilution method; assay type: functional
[13] = tested on: Staphylococcus aureus; experiment: Antibacterial activity against methicillin sensitive Staphylococcus aureus NRS107 assessed as reduction in microbial growth by CLSI based broth microdilution method; assay type: functional
[14] = tested on: Staphylococcus aureus; experiment: Antibacterial activity against vancomycin resistant Staphylococcus aureus 10 assessed as reduction in microbial growth by CLSI based broth microdilution method; assay type: functional
[15] = tested on: Staphylococcus aureus; experiment: Antibacterial activity against methicillin resistant Staphylococcus aureus NRS119 assessed as reduction in microbial growth by CLSI based broth microdilution method; assay type: functional
[16] = tested on: Staphylococcus aureus; experiment: Antibacterial activity against Staphylococcus aureus Newman assessed as reduction in microbial growth incubated for 16 hrs by serial dilution method; assay type: functional
[17] = biological target: T1, UDP-N-acetylglucosamine 1-carboxyvinyltransferase; experiment: Inhibition of Escherichia colo K12 His-tagged MurA expressed in Escherichia coli BL21 cells using UNAG as substrate pre incubated for 10 mins followed by substrate addition and measured after 30 mins by microplate reader analysis
[18] = tested on: Bacillus subtilis; experiment: Antibacterial activity against Bacillus subtilis ATCC 6633 assessed as reduction in microbial growth incubated for 16 hrs by serial dilution method; assay type: functional

Question: With `O=C(Nc1ccc(-c2cn[nH]c2)cc1)C1CN(c2cccc(Cl)c2)N(c2cccc(Cl)c2)C1=O` (stereo not given) as the compound, how does the IC50 [1] read?
Answer: Its IC50 is 12.2 µM.

Question: And the MIC [2]?
Answer: The MIC was over 40 µM.

Question: What about the inhibition [3] of the same compound?
Answer: Its inhibition is 77.2%.

Question: What about the IC50 [4] of the same compound?
Answer: The IC50 was 12.4 µM.

Question: And the inhibition [5]?
Answer: The inhibition was 76.5%.

Question: What about the Drug uptake [6] of the same compound?
Answer: Its Drug uptake is 348 nM.

Question: What about the MIC [7] of the same compound?
Answer: Its MIC is over 40 µM.

Question: What about the Drug uptake [8] of the same compound?
Answer: The Drug uptake was 11 µM.

Question: With `N#Cc1cnc(NC(=O)C2CN(c3cccc(Cl)c3)N(c3cccc(Cl)c3)C2=O)s1` (stereo not given) as the compound, how does the MIC [9] read?
Answer: Its MIC is 32 µg/mL.

Question: What about the IC50 [1] of the same compound?
Answer: The IC50 was 10.9 µM.

Question: And the MIC [2]?
Answer: Its MIC is 10 µM.

Question: And the MIC [10]?
Answer: The MIC was 32 µg/mL.

Question: And the MIC [11]?
Answer: Its MIC is over 64 µg/mL.

Question: And the MIC [12]?
Answer: The MIC was 32 µg/mL.

Question: And the MIC [13]?
Answer: Its MIC is 8 µg/mL.

Question: What about the MIC [14] of the same compound?
Answer: The MIC was 8 µg/mL.

Question: And the inhibition [5]?
Answer: Its inhibition is 70.8%.

Question: What about the Drug uptake [6] of the same compound?
Answer: The Drug uptake was 2560 nM.

Question: And the MIC [15]?
Answer: Its MIC is 16 µg/mL.

Question: And the MIC [7]?
Answer: Its MIC is 10 µM.

Question: And the Drug uptake [8]?
Answer: The Drug uptake was 84 µM.

Question: Which MIC [16] does the source give for `O=C1/C(=N\O)CN(c2cccc(Cl)c2)N1c1cccc(Cl)c1` here?
Answer: Its MIC is 20 µg/mL.

Question: What about the MIC [7] of the same compound?
Answer: Its MIC is 4 µg/mL.

Question: What about the IC50 [17] of the same compound?
Answer: Its IC50 is 88.1 µM.

Question: And the MIC [18]?
Answer: The MIC was 10 µg/mL.
